Measured values from patent US20260151414A1, “COMPOSITIONS AND THERAPEUTIC METHODS FOR TREATING CHRONIC SEQUALAE FOLLOWING VIRAL INFECTIONS” (priority 2023, published 2026).

How the values were obtained:
PASC (Long Covid) = assay: Clinical example: inventor's self-treatment of Long Covid (PASC) symptoms; type: in vivo, human; conditions: for relief of constant headache: person, symptoms returning from mid-December 2020 after Covid, self-medication
ACE2 receptor = ACE2 receptor (Homo sapiens, UniProt Q9BYF1); conditions: active site of ACE2 receptor; cited from earlier work
Covid-19 [1] = conditions: cited from earlier work
Covid-19 [2] = conditions: cited from earlier work; remark: listed apart in the source

ACE2 receptor, sequence (Q9BYF1 18-805): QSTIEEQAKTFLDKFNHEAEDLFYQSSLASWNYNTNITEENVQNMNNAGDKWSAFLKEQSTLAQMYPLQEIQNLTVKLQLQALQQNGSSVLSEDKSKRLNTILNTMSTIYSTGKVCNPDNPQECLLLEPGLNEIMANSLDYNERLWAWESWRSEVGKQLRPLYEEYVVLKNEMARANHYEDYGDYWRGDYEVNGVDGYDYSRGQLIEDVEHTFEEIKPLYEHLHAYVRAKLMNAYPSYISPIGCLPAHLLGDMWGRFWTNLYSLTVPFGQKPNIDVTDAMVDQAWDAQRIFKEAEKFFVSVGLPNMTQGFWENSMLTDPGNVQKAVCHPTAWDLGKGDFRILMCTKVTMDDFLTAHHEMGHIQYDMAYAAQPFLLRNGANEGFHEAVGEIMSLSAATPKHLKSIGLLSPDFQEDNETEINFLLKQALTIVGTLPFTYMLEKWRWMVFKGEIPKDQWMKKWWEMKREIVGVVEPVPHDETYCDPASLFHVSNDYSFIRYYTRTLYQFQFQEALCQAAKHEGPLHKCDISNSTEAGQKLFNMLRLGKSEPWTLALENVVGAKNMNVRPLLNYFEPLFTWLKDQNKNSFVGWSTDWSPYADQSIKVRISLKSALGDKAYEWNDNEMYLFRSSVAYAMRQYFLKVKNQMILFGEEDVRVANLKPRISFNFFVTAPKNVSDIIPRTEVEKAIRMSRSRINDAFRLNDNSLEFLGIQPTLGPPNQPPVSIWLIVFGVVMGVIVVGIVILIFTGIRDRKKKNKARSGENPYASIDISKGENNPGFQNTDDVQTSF

With `O=c1c(O)c(-c2ccc(O)c(O)c2)oc2cc(O)cc(O)c12` [Quercetin] the energy and headaches (PASC (Long Covid); Black Seed Oil and Quercetin (with Zinc) used together, within a few days of using them) was “an increase in energy and I was having fewer headaches”.

For `O=C(O)C=Cc1ccccc1` [Cinnamic Acid], the “blocking of Covid-19 via ACE2 receptor” value (ACE2 receptor) is listed as “block Covid-19 via the active site of ACE2 receptor”.

In the case of `COc1ccc2cc([C@H](C)C(=O)O)ccc2c1` [naproxen], the “relief of constant headache” value (PASC (Long Covid)) is reported as “would not go away”.

In the case of `C=C1CC[C@@H]2[C@](C)(CO)[C@H](O)CC[C@@]2(C)[C@@H]1C/C=C1/C(=O)OC[C@H]1O` [andrographolide], the “inhibitory effect against Covid-19” value (Covid-19 [1]) is given as “potent inhibitory effect”.

In the case of `O=C(O)c1ccccc1` [Benzioc Acid], the “antiviral properties for Covid-19” value (Covid-19 [2]) is given as “strong antiviral properties”.

In the case of `CC(=O)Oc1ccccc1C(=O)O` [aspirin], the “relief of constant headache” value (PASC (Long Covid)) is reported as “would not go away”.

For `CC(C)Cc1ccc(C(C)C(=O)O)cc1` (stereo not shown) [ibuprofen], the “relief of constant headache” value (PASC (Long Covid)) was “would not go away”.
